Structures can show the parent of a compound that is named as a salt.
Experiments:
MYB CJ mRNA = assay: Gene panel canonical junction qPCR assay, MYB; format: cell-based; conditions: Homo sapiens, larger gene panel, read-out: MYB IC50 (decrease in CJ mRNA levels)
Description: (§1) Compounds described herein were used to modulate RNA transcript abundance in cells. The expression of a target mRNA was measured by detecting the formation of an exon-exon junction in the canonical transcript (CJ). A compound mediated exon-inclusion event was detected by observing an increase in formation of a new junction with an alternative exon (AJ). Real-time qPCR assays were used to detect these splicing switches and interrogate the potency of various compounds towards different target genes. A high-throughput real time quantitative PCR (RT-qPCR) assay was developed to measure these two isoforms of the mRNA (CJ and AJ) for exemplary genes, such as HTT, SMN2, and MYB, together with a control housekeeping gene, GAPDH or GUSB or PPIA, used for normalization. Briefly, the A673 or K562 cell line was treated with various compounds described herein (e.g., compounds of Formula (I)). After treatment, the levels of the HTT, MYB, or SMN2 mRNA targets were determined from each sample of cell lysate by cDNA synthesis followed by qPCR.
(§2) The A673 cell line was cultured in DMEM with 10% FBS. Cells were diluted with full growth media and plated in a 96-well plate (15,000 cells in 100 ul media per well). The plate was incubated at 37° C. with 5% CO2 for 24 hours to allow cells to adhere. An 11-point 3-fold serial dilution of the compounds was made in DMSO then diluted in media in an intermediate plate. Compounds were transferred from the intermediate plate to the cell plate with the top dose at a final concentration of 10 uM in the well. Final DMSO concentration was kept at or below 0.25%. The cell plate was returned to the incubator at 37° C. with 5% CO2 for an additional 24 hours.
(§3) The K562 cell line was cultured in IMDM with 10% FBS. For K562, cells were diluted with full growth media and plated in either a 96-well plate (50,000 cells in 50 uL media per well) or a 384-well plate (8,000-40,000 cells in 45 uL media per well). An 11-point 3-fold serial dilution of the compounds were made in DMSO then diluted in media in an intermediate plate. Compound was transferred from the intermediate plate to the cell plate with the top dose at a final concentration of 10 uM in the well. Final DMSO concentration was kept at or below 0.25%. Final volume was 100 uL for 96-well plate and 50 uL for 384-well plate. The cell plate was then placed in an incubator at 37° C. with 5% CO2 for 24 hours.
The data analysis was performed by first determining the ΔCt vs the housekeeper gene. This ΔCt was then normalized against the DMSO control (ΔΔCt) and converted to RQ (relative quantification) using the 2^(−ΔΔCt) equation. The RQ were then converted to a percentage response by arbitrarily setting an assay window of 3.5 and 4.0 ΔCt for HTT-CJ and MYB-CJ respectively and an assay window of 9 and 3 ΔCt for HTT-AJ and MYB-AJ in 96 well format (50,000 K562 cells/well and 15,000 A673 cells per well) and an assay window of 3 and 4 ΔCt for HTT-CJ and MYB-CJ respectively and an assay window of 5 and 3 ΔCt for HTT-AJ and MYB-AJ respectively in 384 well format (8,000 K562 cells/well example). […] The percentage response was then fitted to the 4 parametric logistic equation to evaluate the concentration dependence of compound treatment. The increase in AJ mRNA is reported as AC50 (compound concentration having […] in AJ increase) while the decrease in CJ mRNA levels is reported as IC50 (compound concentration having 50% response in CJ decrease).
Additional studies were carried out for a larger panel of genes using the protocol provided above. The junction between flanking upstream and downstream exons was used to design canonical junction qPCR assays. At least one of the forward primer, reverse primer or the CY5-labeled 5′ nuclease probe (with 3′ quencher such as ZEN/Iowa Black FQ) was designed to overlap with the exon junction to capture the CJ mRNA transcript. […]

HTT mRNA = assay: Splicing RT-qPCR assay, HTT canonical (CJ) and alternative (AJ) junction mRNA; format: cell-based; conditions: Homo sapiens, A673 or K562 cells, 24 hours treatment; for IC50: decrease in CJ mRNA; for AC50: increase in AJ mRNA
Description: as §1
• Cells-to-CT 1-step kit: ThermoFisher A25602, Cells-to-CT lysis reagent: ThermoFisher 4391851C, TaqMan™ Fast Virus 1-Step Master Mix: ThermoFisher 4444436 • GAPDH: VIC-PL, ThermoFisher 4326317E (Assay: Hs99999905_ml)—used for K562/suspension cell lines • GUSB: VIC-PL, ThermoFisher 4326320E (Assay: Hs99999908_ml)—used for K562/suspension cell lines • PPIA: VIC-PL, ThermoFisher 4326316E (Assay: Hs99999904_ml)—used for A673/adherent cell lines
as §2, §3
The cells were then gently washed with 50 uL-100 uL cold PBS before proceeding to addition of lysis buffer. 30 uL-50 μL of room temperature lysis buffer with DNAse I (and optionally RNAsin) was added to each well. Cells were shaken/mixed thoroughly at room temperature for 5-10 minutes for lysis to take place and then 3 uL-5 μL of room temperature stop solution was added and wells were shaken/mixed again. After 2-5 minutes, the cell lysate plate was transferred to ice for RT-qPCR reaction setup. The lysates could also be frozen at −80° C. for later use.
In some cases, a direct lysis buffer was used. An appropriate volume of 3×lysis buffer (10 mM Tris, 150 mM NaCl, 1.5%-2.5% Igepal and 0.1-1 U/uL RNAsin, pH 7.4) was directly added to either K562 or A673 cells in media and mixed by pipetting 3 times. The plates were then incubated at room temperature with shaking/rocking for 20-50 minutes to allow for lysis to take place. After this time, the cell lysate plate was transferred to ice to set up for the RT-qPCR reactions. The lysates could also be frozen at −80° C. for later use. […]

| IC50 (MYB CJ mRNA) | IC50 (HTT mRNA) | SMILES | AC50 (HTT mRNA) |
| --- | --- | --- | --- |
| 1 to 10 µM | 1 to 10 µM | Cc1cn2cc(-c3nn4c(=O)cc(N5CCNC6(CC6)C5)nc4s3)cc(F)c2n1 [Compound 216, 2-(8-fluoro-2-methylimidazo[1,2-a]pyridin-6-yl)-7-(4,7-diazaspiro[2.5]octan-7-yl)-5H-[1,3,4]thiadiazolo[3,2-a]pyrimidin-5-one] | 1 to 10 µM |
| 1 to 10 µM | 1 to 10 µM | Cc1cn2cc(-c3nn4c(=O)cc(N5CCN(C)CC5)nc4s3)cc(F)c2n1 [Compound 217, 2-(8-fluoro-2-methylimidazo[1,2-a]pyridin-6-yl)-7-(4-methylpiperazin-1-yl)-5H-[1,3,4]thiadiazolo[3,2-a]pyrimidin-5-one] | 1 to 10 µM |
| 1 to 10 µM | 1 to 10 µM | Cc1cn2cc(-c3nn4c(=O)cc(N5CCN(C)C6(CC6)C5)nc4s3)cc(F)c2n1 [Compound 218, 2-(8-fluoro-2-methylimidazo[1,2-a]pyridin-6-yl)-7-(4-methyl-4,7-diazaspiro[2.5]octan-7-yl)-5H-[1,3,4]thiadiazolo[3,2-a]pyrimidin-5-one] | 1 to 10 µM |
| > 10 µM | > 10 µM | Cn1cc2cc(-n3cnc4nc(N5CCNCC5)sc4c3=O)ccc2n1 [Compound 225, 6-(2-methyl-2H-indazol-5-yl)-2-(piperazin-1-yl)thiazolo[4,5-d]pyrimidin-7(6H)-one] | > 10 µM |
| 0.1 to 1 µM | 0.1 to 1 µM | Cc1cn2cc(-n3cnc4nc(N5CCNCC5)sc4c3=O)cc(F)c2n1 [Compound 226, 6-(8-fluoro-2-methylimidazo[1,2-a]pyridin-6-yl)-2-(piperazin-1-yl)thiazolo[4,5-d]pyrimidin-7(6H)-one] | 0.1 to 1 µM |
| 1 to 10 µM | 1 to 10 µM | Cc1cn2cc(-n3cnc4nc(N5CCN(C)CC5)sc4c3=O)cc(F)c2n1 [Compound 228, 6-(8-fluoro-2-methylimidazo[1,2-a]pyridin-6-yl)-2-(4-methylpiperazin-1-yl)thiazolo[4,5-d]pyrimidin-7(6H)-one] | 1 to 10 µM |
| > 10 µM | > 10 µM | Cc1cn2cc(-n3cnc4nc(N5CCNCC5)sc4c3=O)cc(C(F)(F)F)c2n1 [Compound 229, 6-(2-methyl-8-(trifluoromethyl)imidazo[1,2-a]pyridin-6-yl)-2-(piperazin-1-yl)thiazolo[4,5-d]pyrimidin-7(6H)-one] | > 10 µM |
| 0.1 to 1 µM | 0.1 to 1 µM | Cc1cn2nc(-c3nc4ncn(C5CCNCC5)c(=O)c4s3)cc(C)c2n1 [Compound 231, 2-(2,8-dimethylimidazo[1,2-b]pyridazin-6-yl)-6-(piperidin-4-yl)thiazolo[4,5-d]pyrimidin-7(6H)-one] | 0.1 to 1 µM |
| 0.1 to 1 µM | < 0.1 µM | Cc1cn2cc(-c3nc4ncn(C5CCNCC5)c(=O)c4s3)cc(F)c2n1 [Compound 232, 2-(8-fluoro-2-methylimidazo[1,2-a]pyridin-6-yl)-6-(piperidin-4-yl)thiazolo[4,5-d]pyrimidin-7(6H)-one] | < 0.1 µM |
| 0.1 to 1 µM | < 0.1 µM | Cc1cc(-c2nc3ncn(C4CCNCC4)c(=O)c3s2)cc2cn(C)nc12 [Compound 233, 2-(2,7-dimethyl-2H-indazol-5-yl)-6-(piperidin-4-yl)thiazolo[4,5-d]pyrimidin-7(6H)-one] | < 0.1 µM |
| 0.1 to 1 µM | 0.1 to 1 µM | Cc1cc(-c2nc3ncn(C4CCN(C)CC4)c(=O)c3s2)cc2cn(C)nc12 [Compound 234, 2-(2,7-dimethyl-2H-indazol-5-yl)-6-(1-methylpiperidin-4-yl)thiazolo[4,5-d]pyrimidin-7(6H)-one] | 0.1 to 1 µM |
| 0.1 to 1 µM | < 0.1 µM | Cc1cn2cc(-c3cc4ncn(C5CCNCC5)c(=O)c4s3)cc(F)c2n1 [Compound 235, 6-(8-fluoro-2-methylimidazo[1,2-a]pyridin-6-yl)-3-(piperidin-4-yl)thieno[3,2-d]pyrimidin-4(3H)-one] | < 0.1 µM |
| 0.1 to 1 µM | < 0.1 µM | Cc1cc(-c2cc3ncn(C4CCNCC4)c(=O)c3s2)cc2cn(C)nc12 [Compound 236, 6-(2,7-dimethyl-2H-indazol-5-yl)-3-(piperidin-4-yl)thieno[3,2-d]pyrimidin-4(3H)-one] | 0.1 to 1 µM |
| 0.1 to 1 µM | 0.1 to 1 µM | Cc1cc(-c2cc3ncn(C4CCN(C)CC4)c(=O)c3s2)cc2cn(C)nc12 [Compound 237, 6-(2,7-dimethyl-2H-indazol-5-yl)-3-(1-methylpiperidin-4-yl)thieno[3,2-d]pyrimidin-4(3H)-one] | 0.1 to 1 µM |
| 0.1 to 1 µM | 0.1 to 1 µM | Cc1cn2nc(-c3cc4ncn(C5CCNCC5)c(=O)c4s3)cc(C)c2n1 [Compound 238, 6-(2,8-dimethylimidazo[1,2-b]pyridazin-6-yl)-3-(piperidin-4-yl)thieno[3,2-d]pyrimidin-4(3H)-one] | 0.1 to 1 µM |

| SMILES | IC50 (MYB CJ mRNA) | IC50 (HTT mRNA) | AC50 (HTT mRNA) |
| --- | --- | --- | --- |
| Cc1cn2cc(-c3nn4c(=O)cc(N(C)C5CC(C)(C)NC(C)(C)C5)nc4s3)cc(F)c2n1 [Compound 215, 2-(8-fluoro-2-methylimidazo[1,2-a]pyridin-6-yl)-7-(methyl(2,2,6,6-tetramethylpiperidin-4-yl)amino)-5H-[1,3,4]thiadiazolo[3,2-a]pyrimidin-5-one] | 1 to 10 µM | 1 to 10 µM | 1 to 10 µM |
| Cc1cn2cc(-n3cnc4nc(N(C)C5CC(C)(C)NC(C)(C)C5)sc4c3=O)cc(F)c2n1 [Compound 227, 6-(8-fluoro-2-methylimidazo[1,2-a]pyridin-6-yl)-2-(methyl(2,2,6,6-tetramethylpiperidin-4-yl)amino)thiazolo[4,5-d]pyrimidin-7(6H)-one, formate] | > 10 µM | > 10 µM | > 10 µM |
| Cc1cn2cc(-n3cnc4nc(N5CCN(C)CC5)sc4c3=O)cc(C(F)(F)F)c2n1 [Compound 230, 6-(2-methyl-8-(trifluoromethyl)imidazo[1,2-a]pyridin-6-yl)-2-(4-methylpiperazin-1-yl)thiazolo[4,5-d]pyrimidin-7(6H)-one] | > 10 µM | > 10 µM | > 10 µM |

— patent US20240366612A1, “COMPOUNDS AND METHODS FOR MODULATING NUCLEIC ACID SPLICING” (REMIX THERAPEUTICS INC., priority 2021, published 2024)
